Series [1] relates to cultured mouse leukemia cell P388. The series can be described thus: inhibition of growth of cultured cells. The format is cell-based. To be noted: read-out: median inhibition dose, ID50. The protocol: The anti-tumor activity of substance MG883-12F2 can be confirmed by measuring its ability to inhibit the growth of known cultured cells. For example, the median inhibition dose, ID50, of substance MG883-12F2 against cultured mouse leukemia cell P388 was 0.5 mg/ml.

Series [2] in a line: anti-tumor activity compared with streptonigrin. To be noted: comparison with streptonigrin, no data given.
The nature of series [3]: cytotoxicity compared with streptonigrin. To be noted: comparison with streptonigrin, no data given.

≈ marks a conversion by molar mass, not a printed value.

For the compound `COc1ccc(-c2c(C)c(C(=O)O)nc(-c3ccc4c(n3)C(=O)C(N)=C(O)C4=O)c2N)c(O)c1OC` [substance MG883-12F2], the IC50 in series [1] was 500 µg/mL (≈ 1020 µM). The anti-tumor activity entry in series [2] is “slightly inferior to streptonigrin”. The cytotoxicity result in series [3] is “lower cytotoxicity”.

The values above are taken from patent EP0185979A1, “A novel substance having anti-tumor activity, a microbiological process for the preparation thereof and its use as a medicament” (MICROBIAL CHEMISTRY RESEARCH FOUNDATION, priority 1984, dated 1986).
